Laboratory results published in paper PMC7159882, “Polyunsaturated fatty acid analogues differentially affect cardiac NaV, CaV, and KV channels through unique mechanisms” (eLife, 2020).
Values joined by “and” are separate entries in the source; they are usually repeats but may differ in a detail not shown here. Identical values can stand only once.

These molecules were tested against T1, Nav1.5/β1 (Homo sapiens, UniProt Q14524) (assay: Two-electrode voltage clamp of Nav1.5/β1 expressed in Xenopus oocytes). Settings: 0.2 μM.
T1 construct: Nav1.5 (UniProt: Q14524.1); expressed in transfected cells; host or cells: Xenopus laevis oocytes (cRNA injection, Nav1.5:β1 2:1 by weight)
T1 sequence (Q14524 whole entry): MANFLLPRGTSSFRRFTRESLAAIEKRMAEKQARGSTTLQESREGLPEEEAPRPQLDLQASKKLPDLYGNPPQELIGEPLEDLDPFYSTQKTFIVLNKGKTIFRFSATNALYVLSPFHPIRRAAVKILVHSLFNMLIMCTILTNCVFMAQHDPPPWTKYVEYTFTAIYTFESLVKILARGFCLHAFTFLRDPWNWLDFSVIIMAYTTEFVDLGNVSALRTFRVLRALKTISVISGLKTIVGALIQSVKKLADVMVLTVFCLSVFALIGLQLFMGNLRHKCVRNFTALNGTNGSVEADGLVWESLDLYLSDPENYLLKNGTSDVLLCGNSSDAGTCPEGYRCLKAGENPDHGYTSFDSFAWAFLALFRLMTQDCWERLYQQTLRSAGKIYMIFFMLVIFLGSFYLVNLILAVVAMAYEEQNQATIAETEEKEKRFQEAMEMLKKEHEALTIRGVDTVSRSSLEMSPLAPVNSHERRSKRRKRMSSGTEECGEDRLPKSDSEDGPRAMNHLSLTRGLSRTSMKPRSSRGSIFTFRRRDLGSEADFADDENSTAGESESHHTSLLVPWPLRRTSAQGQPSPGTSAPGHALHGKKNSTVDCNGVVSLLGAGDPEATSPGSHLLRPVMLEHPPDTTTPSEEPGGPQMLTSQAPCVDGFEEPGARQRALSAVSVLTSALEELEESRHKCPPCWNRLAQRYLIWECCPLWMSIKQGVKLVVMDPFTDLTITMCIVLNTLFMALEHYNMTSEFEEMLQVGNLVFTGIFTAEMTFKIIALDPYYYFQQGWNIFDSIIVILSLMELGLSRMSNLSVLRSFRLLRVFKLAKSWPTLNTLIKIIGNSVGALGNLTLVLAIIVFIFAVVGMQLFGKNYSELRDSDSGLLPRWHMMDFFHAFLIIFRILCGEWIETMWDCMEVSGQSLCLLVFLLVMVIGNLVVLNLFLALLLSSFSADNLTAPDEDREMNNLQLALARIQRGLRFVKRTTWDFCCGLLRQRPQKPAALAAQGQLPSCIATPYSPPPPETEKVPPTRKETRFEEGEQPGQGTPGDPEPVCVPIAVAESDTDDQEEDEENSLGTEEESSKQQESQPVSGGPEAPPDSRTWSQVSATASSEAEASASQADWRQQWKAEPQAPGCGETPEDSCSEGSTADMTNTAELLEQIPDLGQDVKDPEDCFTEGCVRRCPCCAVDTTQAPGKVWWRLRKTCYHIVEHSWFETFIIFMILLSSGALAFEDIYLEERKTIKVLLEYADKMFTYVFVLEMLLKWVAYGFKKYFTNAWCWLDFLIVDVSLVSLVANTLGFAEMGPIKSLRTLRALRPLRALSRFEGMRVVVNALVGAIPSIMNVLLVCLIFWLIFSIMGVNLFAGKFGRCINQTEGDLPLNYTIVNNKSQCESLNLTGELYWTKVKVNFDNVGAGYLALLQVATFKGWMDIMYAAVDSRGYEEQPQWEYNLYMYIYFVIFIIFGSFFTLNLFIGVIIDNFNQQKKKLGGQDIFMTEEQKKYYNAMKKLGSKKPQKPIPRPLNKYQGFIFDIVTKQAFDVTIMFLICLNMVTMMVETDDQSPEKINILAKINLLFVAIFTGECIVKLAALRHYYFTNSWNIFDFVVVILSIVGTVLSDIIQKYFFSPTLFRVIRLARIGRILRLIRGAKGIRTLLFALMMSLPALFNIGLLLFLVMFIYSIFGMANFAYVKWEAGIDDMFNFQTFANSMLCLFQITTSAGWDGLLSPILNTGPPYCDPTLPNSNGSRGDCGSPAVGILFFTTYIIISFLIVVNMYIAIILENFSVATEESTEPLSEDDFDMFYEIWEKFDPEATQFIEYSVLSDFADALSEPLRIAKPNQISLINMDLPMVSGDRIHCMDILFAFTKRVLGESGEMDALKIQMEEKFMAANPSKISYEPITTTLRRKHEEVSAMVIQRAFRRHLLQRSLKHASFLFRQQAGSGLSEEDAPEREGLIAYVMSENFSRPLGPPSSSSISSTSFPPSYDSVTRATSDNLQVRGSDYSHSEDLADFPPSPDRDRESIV
T1 sequence (Q07699 19-218 partner): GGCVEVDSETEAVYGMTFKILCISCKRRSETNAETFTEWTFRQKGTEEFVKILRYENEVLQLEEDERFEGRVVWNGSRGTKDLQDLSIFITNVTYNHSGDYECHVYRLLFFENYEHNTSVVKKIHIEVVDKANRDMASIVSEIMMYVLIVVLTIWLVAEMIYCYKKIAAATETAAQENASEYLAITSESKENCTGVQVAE
Assay type: cell-based
Experimental: Molecular Biology cRNA encoding Kv7.1 (UniProt: P51787), KCNE1 (UniProt: P15382.1), Nav1.5 (UniProt: Q14524.1), Nav β1 (UniProt: […]), Nav β3 (UniProt: […]), Cav1.2 (GenBank: CAA84346), Cav β3 (Uniprot: P54286), Cav β2 (Uniprot: P54288), and Cav α2δ (Uniprot: P13806) were transcribed using the mMessage mMachine T7 kit (Ambion). 50 ng of cRNA was injected into defolliculated Xenopus laevis oocytes (Ecocyte, Austin, TX): For Kv7.1/KCNE1 channel expression, we injected a 3:1, weight:weight (Kv7.1:KCNE1) cRNA ratio. For Nav1.5 channel expression, we injected a 2:1, weight:weight (Nav1.5:β1) cRNA ratio. For Cav1.2 channel expression, we injected a 2:1:1, weight:weight (Cav1.2:β3:α2δ) cRNA ratio. The exact stoichiometry for channel macromolecular complexes, including α -subunits and auxiliary subunits is not clear for many ion channels. For example, there have been multiple reported stoichiometries for Kv7.1:KCNE1 determined in heterologous expression systems with some groups reporting flexible stoichiometry of 4 Kv7.1: 1–4 KCNE1 and others reporting a fixed stoichiometry of 4 Kv7.1: 2 KCNE1 ([Murray et al., 2016]; [Nakajo et al., 2010]). The ratios of cRNA of α- and auxiliary subunits that we injected in Xenopus laevis oocytes are such that all α-subunits are assumed to be in complex with auxiliary subunits. This allows a more homogenous population of ion channels with auxiliary subunits. One caveat to expressing ion channels as macromolecular complexes is that there are many other auxiliary subunits that could associate with the channel α -subunit that are present in cardiomyocytes and have the potential to alter PUFA-induced effects, but that are not being co-expressed in our experiments. In this work, we are co-expressing some of the auxiliary subunits that have been primarily reported to associate with their respective α -subunits in cardiomyocytes. Following cRNA injection, cells were incubated for 72–96 hr in standard ND96 solution (96 mM NaCl, 2 mM KCl, 1 mM MgCl2, 1.8 mM CaCl2, 5 mM HEPES; pH = 7.5) containing 1 mM pyruvate at 16°C prior to electrophysiological recordings.
Xenopus laevis oocytes were recorded in the two-electrode voltage clamp (TEVC) configuration. Recording pipettes were filled with 3 M KCl. The recording chamber was filled with ND96 (96 mM NaCl, 2 mM KCl, 1 mM MgCl2, 1.8 mM CaCl2, 5 mM HEPES; pH 7.5). For Cav1.2/β3/α2δ channel recordings, Xenopus oocytes were injected with 50 nl of 100 mM EGTA and incubated at 10°C for 30 min prior to electrophysiological recordings in order to sequester cytosolic calcium. In addition, Cav1.2/β3/α2δ channel recordings were done in Ca^2+-free solutions, using Ba^2+ as the charge carrier, to prevent calcium-dependent inactivation of Cav1.2/β3/α2δ channels. Calcium-dependent inactivation was not studied in this work, due to the presence of large calcium-activated chloride currents present in Xenopus laevis oocytes. PUFAs were obtained from Cayman Chemical (Ann Arbor, MI.) or synthesized in house (Linköping, Sweden) through methods previously described ([Bohannon et al., 2020]) and kept at −20 °C as 100 mM stock solutions in ethanol. Serial dilutions of the different PUFAs were prepared from stocks to make 0.2 μM, 0.7 μM, 2 μM, 7 μM, and 20 μM concentrations in ND96 solutions (pH = 7.5). PUFAs were perfused into the recording chamber using the Rainin Dynamax Peristaltic Pump (Model RP-1) (Rainin Instrument Co., Oakland, CA. USA).
Electrophysiological recordings were obtained using Clampex 10.3 software (Axon, pClamp, Molecular Devices). To measure Kv7.1/KCNE1 currents we apply PUFAs as the membrane potential is stepped every 30 s from −80 mV to 0 mV for 5 s before stepping to −40 mV and back to −80 mV to ensure that the PUFA effects on the current at 0 mV reached steady state. A voltage-step protocol was used to measure the current vs. voltage (I-V) relationship before PUFA application and after the PUFA effects had reached steady state for each concentration of PUFA. […]
For `CC/C=C\C/C=C\C/C=C\C/C=C\C/C=C\C/C=C\CCC(=O)NCC(=O)O` [DHA-glycine, docosahexaenoyl glycine], the Gmax/Gmax0 was 1.0 ± 0.02 and the “ΔV0.5 (voltage dependence of inactivation)” value was 0.3 ± 0.1 mV. `CCCCC/C=C\C/C=C\C/C=C\C/C=C\CCCC(=O)NCCS(=O)(=O)O` [N-AT, N-arachidonoyl taurine] was tested, and the Gmax/Gmax0 was 1.0 ± 0.04 and the “ΔV0.5 (voltage dependence of inactivation)” value was -0.2 ± 0.5 mV. In the case of `CCCCC/C=C\C/C=C\CC/C=C\CCCC(=O)NCCS(=O)(=O)O` [Pin-taurine], the Gmax/Gmax0 is reported as 1.2 ± 0.2 and the “ΔV0.5 (voltage dependence of inactivation)” value is reported as 1.6 ± 0.9 mV.

Same assay, conditions: 0.2 μM; relative current at 0 mV
`CC/C=C\C/C=C\C/C=C\C/C=C\C/C=C\C/C=C\CCC(=O)NCC(=O)O` [DHA-glycine, docosahexaenoyl glycine] was tested, and the “INa I/I0” value was 1.0 ± 0.02. For `CCCCC/C=C\C/C=C\C/C=C\C/C=C\CCCC(=O)NCCS(=O)(=O)O` [N-AT, N-arachidonoyl taurine], the “INa I/I0” value was 1.0 ± 0.09. `CCCCC/C=C\C/C=C\CC/C=C\CCCC(=O)NCCS(=O)(=O)O` [Pin-taurine] was tested, and the “INa I/I0” value was 1.2 ± 0.1.

Same assay, conditions: 0.7 μM
In the case of `CC/C=C\C/C=C\C/C=C\C/C=C\C/C=C\C/C=C\CCC(=O)NCC(=O)O` [DHA-glycine, docosahexaenoyl glycine], the Gmax/Gmax0 is reported as 1.0 ± 0.03 and the “ΔV0.5 (voltage dependence of inactivation)” value is reported as -0.2 ± 0.6 mV. For `CCCCC/C=C\C/C=C\C/C=C\C/C=C\CCCC(=O)NCCS(=O)(=O)O` [N-AT, N-arachidonoyl taurine], the Gmax/Gmax0 was 1.0 ± 0.06 and the “ΔV0.5 (voltage dependence of inactivation)” value was 0.2 ± 1.4 mV. For `CCCCC/C=C\C/C=C\CC/C=C\CCCC(=O)NCCS(=O)(=O)O` [Pin-taurine], the Gmax/Gmax0 was 1.2 ± 0.2 and the “ΔV0.5 (voltage dependence of inactivation)” value was 0.9 ± 1.1 mV.

Same assay, conditions: 0.7 μM; relative current at 0 mV
In the case of `CC/C=C\C/C=C\C/C=C\C/C=C\C/C=C\C/C=C\CCC(=O)NCC(=O)O` [DHA-glycine, docosahexaenoyl glycine], the “INa I/I0” value is reported as 1.0 ± 0.04. With `CCCCC/C=C\C/C=C\C/C=C\C/C=C\CCCC(=O)NCCS(=O)(=O)O` [N-AT, N-arachidonoyl taurine] the “INa I/I0” value was 1.0 ± 0.07. With `CCCCC/C=C\C/C=C\CC/C=C\CCCC(=O)NCCS(=O)(=O)O` [Pin-taurine] the “INa I/I0” value was 1.2 ± 0.1.

Same assay, conditions: 2 μM
With `CC/C=C\C/C=C\C/C=C\C/C=C\C/C=C\C/C=C\CCC(=O)NCC(=O)O` [DHA-glycine, docosahexaenoyl glycine] the Gmax/Gmax0 was 1.0 ± 0.04 and the “ΔV0.5 (voltage dependence of inactivation)” value was -0.3 ± 0.5 mV. In the case of `CCCCC/C=C\C/C=C\C/C=C\C/C=C\CCCC(=O)NCCS(=O)(=O)O` [N-AT, N-arachidonoyl taurine], the Gmax/Gmax0 is reported as 0.7 ± 0.03 and the “ΔV0.5 (voltage dependence of inactivation)” value is reported as -5.2 ± 0.4 mV. With `CCCCC/C=C\C/C=C\CC/C=C\CCCC(=O)NCCS(=O)(=O)O` [Pin-taurine] the Gmax/Gmax0 was 1.0 ± 0.1 and the “ΔV0.5 (voltage dependence of inactivation)” value was -3.0 ± 1.9 mV.

Same assay, conditions: 2 μM; relative current at 0 mV
In the case of `CC/C=C\C/C=C\C/C=C\C/C=C\C/C=C\C/C=C\CCC(=O)NCC(=O)O` [DHA-glycine, docosahexaenoyl glycine], the “INa I/I0” value is reported as 1.1 ± 0.05. With `CCCCC/C=C\C/C=C\C/C=C\C/C=C\CCCC(=O)NCCS(=O)(=O)O` [N-AT, N-arachidonoyl taurine] the “INa I/I0” value was 0.7 ± 0.08. In the case of `CCCCC/C=C\C/C=C\CC/C=C\CCCC(=O)NCCS(=O)(=O)O` [Pin-taurine], the “INa I/I0” value is reported as 1.0 ± 0.1.

Same assay, conditions: 7 μM
With `CC/C=C\C/C=C\C/C=C\C/C=C\C/C=C\C/C=C\CCC(=O)NCC(=O)O` [DHA-glycine, docosahexaenoyl glycine] the Gmax/Gmax0 was 1.0 ± 0.04 and the “ΔV0.5 (voltage dependence of inactivation)” value was −2.4 ± 0.6 mV and -2.4 ± 0.7 mV. `CCCCC/C=C\C/C=C\C/C=C\C/C=C\CCCC(=O)NCCS(=O)(=O)O` [N-AT, N-arachidonoyl taurine] was tested, and the Gmax/Gmax0 was 0.3 ± 0.04 and the “ΔV0.5 (voltage dependence of inactivation)” value was “–16.7 ± 3.5 mV”. With `CCCCC/C=C\C/C=C\CC/C=C\CCCC(=O)NCCS(=O)(=O)O` [Pin-taurine] the Gmax/Gmax0 was 0.4 ± 0.09 and the “ΔV0.5 (voltage dependence of inactivation)” value was “–16 ± 2.7 mV”.

Same assay, conditions: 7 μM; listed as pin-taurine
`CCCCC/C=C\C/C=C\CC/C=C\CCCC(=O)NCCS(=O)(=O)O` [Pin-taurine] was tested, and the Gmax/Gmax0 was 0.4 ± 0.1 and the “ΔV0.5 (voltage dependence of inactivation)” value was -16.0 ± 2.7 mV.

Same assay, conditions: 7 μM; relative current at 0 mV
With `CCCCC/C=C\C/C=C\CC/C=C\CCCC(=O)NCCS(=O)(=O)O` [Pin-taurine] the “INa I/I0” value was 0.5 ± 0.1 (p=0.01).

Same assay, conditions: 7 μM; relative current at 0 mV; listed as pin-taurine
In the case of `CCCCC/C=C\C/C=C\CC/C=C\CCCC(=O)NCCS(=O)(=O)O` [Pin-taurine], the “INa I/I0” value is reported as 0.5 ± 0.1.

Same assay, conditions: 20 μM
`CC/C=C\C/C=C\C/C=C\C/C=C\C/C=C\C/C=C\CCC(=O)NCC(=O)O` [DHA-glycine, docosahexaenoyl glycine] was tested, and the Gmax/Gmax0 was 0.5 ± 0.1 and the “ΔV0.5 (voltage dependence of inactivation)” value was -11.5 ± 1.7 mV. `CCCCC/C=C\C/C=C\C/C=C\C/C=C\CCCC(=O)NCCS(=O)(=O)O` [N-AT, N-arachidonoyl taurine] was tested, and the Gmax/Gmax0 was 0.07 ± 0.01 and the “ΔV0.5 (voltage dependence of inactivation)” value was -27.5 ± 2.9 mV. In the case of `CCCCC/C=C\C/C=C\CC/C=C\CCCC(=O)NCCS(=O)(=O)O` [Pin-taurine], the Gmax/Gmax0 is reported as 0.1 ± 0.02 and the “ΔV0.5 (voltage dependence of inactivation)” value is reported as -28.1 ± 2.4 mV.

Same assay, conditions: 20 μM; relative current at 0 mV
In the case of `CC/C=C\C/C=C\C/C=C\C/C=C\C/C=C\C/C=C\CCC(=O)NCC(=O)O` [DHA-glycine, docosahexaenoyl glycine], the “INa I/I0” value is reported as 0.7 ± 0.1. With `CCCCC/C=C\C/C=C\C/C=C\C/C=C\CCCC(=O)NCCS(=O)(=O)O` [N-AT, N-arachidonoyl taurine] the “INa I/I0” value was 0.1 ± 0.02. In the case of `CCCCC/C=C\C/C=C\CC/C=C\CCCC(=O)NCCS(=O)(=O)O` [Pin-taurine], the “INa I/I0” value is reported as 0.2 ± 0.03.
